In patent publication US4695580A, “Phenylserine derivatives and processes for preparing the same” (Sumitomo Pharmaceuticals Company, Ltd., priority 1983, dated 1987) one finds inhibition data, which are given here for 26 molecules.

Counter-ions that a name gives are not always drawn. Bounds are passed on as bounds.

The subject of assay [1] is SRS-A. Description: Anti-SRS-A activity by Magnus method, isolated guinea pig ileum. The settings on record: Cavia porcellus, read-out: Inhibition (anti-SRS-A activity, inhibition rate); for inhibition at 1 µg/mL: 5 min, drug at 10^-6 g/ml (values without *); for inhibition at 1 µM: drug at 10^-6 M (values marked *). Type of assay: cell-based. As to the method: Anti-SRS-A activity of the drugs (the compounds of the present invention) was assayed by using isolated ileum of guinea pig (weighing 300-400 g, male).
SRS-A sample was prepared as follows.
Male albino guinea-pigs were administered by intraperitoneal and subcutaneous injection of 50 mg ovalbumin emulsified with a half amount of Freund's complete adjuvant every other day (total three times). 4 Weeks after the administration lungs were isolated from guinea-pigs and chopped into small pieces. The tissue was placed in Tyrode solution containing indomethacin (1μg/ml) and incubated at 37° C. for 15 min. The incubated solution was then centrifuged and the supernatant fluid was used for the SRS-A sample.
The anti-SRS-A activity was assayed by Magnus method, i.e. a modified method by Eda et al. [cf. Bulletin of Pharmacology in Japan, 66, 194-213 (1970)] using isolated guinea pig ileum. That is, an isolated ileum of guinea pig was hung within an organ bath which was filled with a Tyrode solution containing mepyramine (0.4 μg/ml) and atropine (0.35,/μg/ml) at 37° C. under aeration. The SRS-A sample was given until reproducible contractions were obtained. A solution of the drug (the compounds of the present inventions was added thereto in the final concentration of 10^-6 g/ml or 10^-6 M. After 5 minutes, the SRS-A sample was again acted, and the change of contractile response was measured. Based on the change of contractile response, the anti-SRS-A activity (inhibition rate) was calculated by the following equation: [formula] wherein
a^1 : Contractile response before administration of a drug.
a^2 : Contractile response after administration of a drug.

For assay [2], the target named is T1, 5-lipoxygenase (Cavia porcellus, UniProt A0A286X958).
T1 construct: leucocytes isolated from abdominal cavity of guinea pig; endogenous in cells; host or cells: leucocytes isolated from the abdominal cavity of guinea pig (intact cells)
T1 sequence (A0A286X958 1-674): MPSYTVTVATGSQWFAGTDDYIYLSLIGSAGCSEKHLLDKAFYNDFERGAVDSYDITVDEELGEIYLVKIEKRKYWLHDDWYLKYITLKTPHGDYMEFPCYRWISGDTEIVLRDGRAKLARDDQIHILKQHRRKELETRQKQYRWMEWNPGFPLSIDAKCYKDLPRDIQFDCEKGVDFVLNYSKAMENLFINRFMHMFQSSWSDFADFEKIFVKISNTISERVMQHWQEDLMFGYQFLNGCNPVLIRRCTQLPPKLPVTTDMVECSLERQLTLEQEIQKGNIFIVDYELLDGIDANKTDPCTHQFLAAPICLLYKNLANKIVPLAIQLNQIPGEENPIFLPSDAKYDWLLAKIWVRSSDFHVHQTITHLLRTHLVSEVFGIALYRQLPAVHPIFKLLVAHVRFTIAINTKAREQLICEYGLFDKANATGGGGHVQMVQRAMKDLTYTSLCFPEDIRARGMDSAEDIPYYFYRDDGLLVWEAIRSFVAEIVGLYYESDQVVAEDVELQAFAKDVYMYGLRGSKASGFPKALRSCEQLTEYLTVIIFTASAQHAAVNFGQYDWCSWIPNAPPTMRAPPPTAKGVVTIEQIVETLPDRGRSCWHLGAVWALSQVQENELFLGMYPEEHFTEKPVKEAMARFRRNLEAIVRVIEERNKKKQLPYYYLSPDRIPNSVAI
Kind of assay: 5-Lipoxygenase inhibitory activity (inhibition of 5-HETE production) in guinea pig abdominal leucocytes. It counts as cell-based. The settings on record: 10 μM compound, A 23187, 14C-arachidonic acid, read-out: Inhibition (5-HETE production, inhibition rate). The protocol: The inhibitory activity was assayed in the same manner as described by J. Harvey et al. That is, leucocytes isolated from abdominal cavity of guinea pig were suspended in Krebs Ringer buffer (KRB, pH 7.4) in a concentration of 2.2×10^7 […]. The leucocytes suspension (935 μl) was preincubated with shaking at 37° C. for 10 minutes, and thereto was added a solution (10 μl) of test drugs (the compounds of the present invention) in dimethylsulfoxide (DMSO) (the final concentration of the compound being 10 μM in the solution). The mixture was incubated for 10 minutes, and then, ^14 C-arachidonic acid (0.1 μCi, 50 μl) (in 5% ethanol/KRB) and A 23187 (J. Pharmacol. Methods, 9, 147-155(1983), 5 μg in 5 μl DMSO) were added thereto, and the mixture was further incubated for 10 minutes. Ice-cooled 0.2M aqueous citric acid solution (100 μl) was added thereto in order to stop the reaction, and then, water (4 ml) was further added thereto. The mixture was twice extracted with ethyl acetate (each 2.5 ml), and the organic layer was distilled to dryness under nitrogen. The resulting residue was dissolved in ethyl acetate and the solution was applied onto a TLC plate. After developing with toluene-dioxane-acetic acid (65:34:1.5 V/V), 5-HETE (5-hydroxyeicosatetraenoic acid) produced by 5-lipoxygenase was measured with TLC scanner. The inhibition rate (%) was calculated by comparing the amount of 5-HETE between the addition and non-addition of a drug by the following equation: [formula] wherein
b^1 : Amount of produced 5-HETE in case of non-addition of a drug.
b^2 Amount of produced 5-HETE in case of addition of a drug.

Broadly, the inhibition is how much of the control response was suppressed. Take `COC(=O)[C@@H](NC(C)CCc1ccc(O)cc1)[C@H](O)c1ccc(O)c(O)c1` (relative stereo) [compound 143]: the inhibition at 1 µg/mL in assay [1] was 83%.
As for `COC(=O)[C@H](NC(C)CCc1ccccc1)[C@@H](O)c1ccc(O)c(O)c1` (stereo partly drawn) [Compd. No. 156, D-threo-3-(3,4-dihydroxyphenyl)-N-(1-methyl-3-phenylpropyl)serine methyl ester], the inhibition at 1 µg/mL in assay [1] amounted to 90%.
As for `CC(CCc1ccco1)N[C@H](C(=O)N1CCCC1)[C@H](O)c1ccc(O)c(O)c1` (some centres unmarked) [compound 35], in assay [1], the inhibition at 1 µM came out at 87%.
Turning to `COC(=O)[C@@H](NC(C)CCC(C)C)[C@H](O)c1ccc(O)c(O)c1` (relative stereo) [compound 142], the inhibition at 1 µg/mL in assay [1] is 91%. For the same molecule, the inhibition at 10 µM in assay [2] was more than 70%.
For `CC(CCc1ccccc1)N[C@H](C(=O)N1CCCC1)[C@H](O)c1ccc(O)c(O)c1` (stereo partly drawn) [Compd. No. 10, L-Threo-3-(3,4-dihydroxyphenyl)-N-(1-methyl-3-phenylpropyl)serine pyrrolidine amide], the inhibition at 1 µM in assay [1] turned out to be 100%.
In the case of `CNC(=O)[C@@H](NC(C)CCc1ccccc1)[C@H](O)c1ccc(O)c(O)c1` (relative stereo) [compound 48], the inhibition at 1 µg/mL in assay [1] worked out at 100%.
Same read-out and setting: the result for `CC(CCc1ccccc1)N[C@H](C(=O)OC(C)C)[C@H](O)c1ccc(O)c(O)c1` (relative stereo) [Compd. No. 158, DL-threo-3-(3,4-dihydroxyphenyl)-N-(1-methyl-3-phenylpropyl)serine isopropyl ester] reads 96%.
Consider `COc1cc(C)c(CCC(C)N[C@H](C(=O)N2CCCC2)[C@H](O)c2ccc(O)c(O)c2)c(C)c1C` (some centres unmarked) [compound 28], for which the inhibition at 1 µM in assay [1] is 94%.
Regarding `COC(=O)[C@@H](NC(C)CCc1ccccc1)[C@H](O)c1ccc(O)c(O)c1` (relative stereo) [Compd. No. 120, DL-threo-3-(3,4-dihydroxyphenyl)-N-(1-methyl-3-phenylpropyl)serine methyl ester], the inhibition at 1 µg/mL in assay [1] turned out to be 97%.
For the molecule `COC(=O)[C@@H]1CCCN1C(=O)[C@@H](NC(C)CCc1ccccc1)[C@H](O)c1ccc(O)c(O)c1` (some centres unmarked) [compound 65], the inhibition at 1 µM in assay [1] came to 85%.
With `CC(CCc1ccccc1)N[C@H](CO)[C@H](O)c1ccc(O)c(O)c1` (relative stereo) [Compd. No. 183, DL-threo-1-(3,4-dihydroxyphenyl)-2-(1-methyl-3-phenylpropyl)amino-1,3-propanediol 1/2 oxalate], the inhibition at 1 µg/mL in assay [1] stood at 97%. Further, in assay [2], the inhibition at 10 µM was more than 70%.
In the case of `O=C([C@@H](NCCCc1ccccc1)[C@H](O)c1ccc(O)c(O)c1)N1CCCC1` (relative stereo) [Compd. No. 13], the inhibition at 1 µM in assay [1] was determined as 100%.
Regarding `COC(=O)[C@@H](NC(C)CCc1ccc(OC)cc1)[C@H](O)c1ccc(O)c(O)c1` (relative stereo) [Compd. No. 122, DL-threo-3-(3,4-dihydroxyphenyl)-N-[1-methyl-3-(p-methoxyphenyl)propyl]serine methyl ester], the inhibition at 1 µg/mL in assay [1] is 94%. The inhibition at 10 µM in assay [2] is more than 70%.
Turning to `CC(CCc1ccccc1)N[C@H](C(=O)N1CCc2ccccc21)[C@H](O)c1ccc(O)c(O)c1` (relative stereo) [compound 77], the inhibition at 1 µM in assay [1] worked out at 96%. In addition, in assay [2], the inhibition at 10 µM is more than 70%.
In the case of `CC(CCc1ccccc1)N[C@H](C(=O)N1CCCC1)[C@H](O)c1ccc(O)c(O)c1` (relative stereo) [Compd. No. 19, DL-Threo-3-(3,4-dihydroxyphenyl)-N-(1-methyl-3phenylpropyl)serine pyrrolidine amide], the inhibition at 1 µg/mL in assay [1] worked out at 100%. In assay [2], the inhibition at 10 µM was more than 70%.
With `CC(CCc1ccc(F)cc1)N[C@H](C(=O)N1CCCC1)[C@H](O)c1ccc(O)c(O)c1` (some centres unmarked) [compound 29], the inhibition at 1 µM in assay [1] was 97%.
As to `CCCCc1ccc(NC(=O)CCCCC(C)N[C@H](C(=O)OC)[C@H](O)c2ccc(O)c(O)c2)cc1` (relative stereo) [compound 147], the inhibition at 1 µg/mL in assay [1] was found to be 100%.
With `CCOC(=O)[C@@H](NC(C)CCc1ccccc1)[C@H](O)c1ccc(O)c(O)c1` (relative stereo) [Compd. No. 132, DL-Threo-3-(3,4-dihydroxyphenyl)-N-(1-methyl-3-phenylpropyl)serine ethyl ester], in assay [1], the inhibition at 1 µg/mL was determined as 82%. Moreover, the inhibition at 10 µM in assay [2] was more than 70%.
For the molecule `CC(C)COC(=O)[C@@H](NC(C)CCc1ccccc1)[C@H](O)c1ccc(O)c(O)c1` (relative stereo) [Compd. No. 170, DL-threo-3-(3,4-dihydroxyphenyl)-N-(1-methyl-3-phenylpropyl)serine isobutyl ester], the inhibition at 1 µg/mL in assay [1] stood at 85%.
As to `CC(CCc1cccc2ccccc12)N[C@H](C(=O)N1CCCC1)[C@H](O)c1ccc(O)c(O)c1` (some centres unmarked) [compound 34], the inhibition at 1 µM in assay [1] was determined as 92%.
Turning to `CC(CCc1ccccc1)N[C@H](C(N)=O)[C@H](O)c1ccc(O)c(O)c1` (relative stereo) [compound 177, DL-threo-3-(3,4-dihydroxphenyl)-N-(1-methyl-3-phenylpropyl)serine amide], the inhibition at 1 µg/mL in assay [1] came to 86%.
Turning to `COC(=O)[C@@H](NC(C)CCCCC(=O)Nc1ccc(C(F)(F)F)cc1)[C@H](O)c1ccc(O)c(O)c1` (relative stereo) [compound 146], the inhibition at 1 µg/mL in assay [1] amounted to 94%.
Take `CCCCc1ccc(NC(=O)CCCCC(C)N[C@H](C(=O)N2CCCC2)[C@H](O)c2ccc(O)c(O)c2)cc1` (some centres unmarked) [compound 41]: in assay [1], the inhibition at 1 µM is 81%.
In the case of `CC(CCc1ccccc1)N[C@H](C(=O)NN)[C@H](O)c1ccc(O)c(O)c1` (relative stereo) [Compd. No. 178, DL-threo-3-(3,4-dihydroxyphenyl)-N-(1-methyl-3-phenylpropyl)serine hydrazide], in assay [1], the inhibition at 1 µg/mL was determined as 81%.
On the same count and under the same terms, in the case of `CC(CCc1ccccc1)N[C@H](COC(N)=O)[C@H](O)c1ccc(O)c(O)c1` (relative stereo) [Compd. No. 189, DL-threo-1-(3,4-dihydroxyphenyl)-2-(1-methyl-3-phenylpropyl)-amino-3-carbamoyloxypropanol] it was 98%.
As to `CC(CCCCC(=O)Nc1ccc(C(F)(F)F)cc1)N[C@H](C(=O)N1CCCC1)[C@H](O)c1ccc(O)c(O)c1` (some centres unmarked) [compound 42], the inhibition at 1 µM in assay [1] was 97%.
